Assay results reported in PubChem BioAssay (NCI).
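Here, GI50 denotes the concentration required for 50% inhibition of growth. The concentration for full growth arrest is given as TGI.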

Legend:
Experiment in all cases: NCI anticancer screen, dose series, 384-well format; in the data active = GI50 below about 0.43 µM; inactive = the rest
COLO 205 colon = test system: COLO 205 colon
CAKI-1 renal = test system: CAKI-1 renal
OVCAR-4 ovarian = test system: OVCAR-4 ovarian
MALME-3M melanoma = test system: MALME-3M melanoma
SK-OV-3 ovarian = test system: SK-OV-3 ovarian
DU-145 prostate = test system: DU-145 prostate
NCI-H322M lung = test system: NCI-H322M lung
A498 renal = test system: A498 renal
OVCAR-3 ovarian = test system: OVCAR-3 ovarian
BT-549 breast = test system: BT-549 breast
KM12 colon = test system: KM12 colon
MCF7 breast = test system: MCF7 breast
RPMI-8226 leukemia = test system: RPMI-8226 leukemia
SF-539 CNS = test system: SF-539 CNS
SK-MEL-28 melanoma = test system: SK-MEL-28 melanoma
UO-31 renal = test system: UO-31 renal
SR leukemia = test system: SR leukemia
SF-295 CNS = test system: SF-295 CNS
UACC-257 melanoma = test system: UACC-257 melanoma
NCI-H23 lung = test system: NCI-H23 lung
MDA-MB-435 melanoma = test system: MDA-MB-435 melanoma
SW-620 colon = test system: SW-620 colon
M14 melanoma = test system: M14 melanoma
MDA-MB-468 breast = test system: MDA-MB-468 breast
NCI/ADR-RES ovarian = test system: NCI/ADR-RES ovarian
U251 glioblastoma = test system: U251 glioblastoma
K-562 leukemia = test system: K-562 leukemia
T-47D breast = test system: T-47D breast
HOP-92 NSCLC = test system: HOP-92 NSCLC
TK-10 renal = test system: TK-10 renal
NCI-H522 lung = test system: NCI-H522 lung
SN12C renal = test system: SN12C renal
HCC-2998 colon = test system: HCC-2998 colon
786-0 renal = test system: 786-0 renal
HT29 colon = test system: HT29 colon
NCI-H226 lung = test system: NCI-H226 lung
SNB-19 CNS = test system: SNB-19 CNS
MDA-MB-231 breast = test system: MDA-MB-231 breast
IGROV1 ovarian = test system: IGROV1 ovarian
SK-MEL-2 melanoma = test system: SK-MEL-2 melanoma
HL-60(TB) leukemia = test system: HL-60(TB) leukemia
NCI-H460 NSCLC = test system: NCI-H460 NSCLC
HOP-62 NSCLC = test system: HOP-62 NSCLC
OVCAR-8 ovarian = test system: OVCAR-8 ovarian
MOLT-4 leukemia = test system: MOLT-4 leukemia
ACHN renal = test system: ACHN renal
HCT-15 colon = test system: HCT-15 colon
SF-268 CNS = test system: SF-268 CNS
HCT-116 colon = test system: HCT-116 colon
A549 NSCLC = test system: A549 NSCLC
SK-MEL-5 melanoma = test system: SK-MEL-5 melanoma
UACC-62 melanoma = test system: UACC-62 melanoma
RXF 393 renal = test system: RXF 393 renal
PC-3 prostate = test system: PC-3 prostate
LOX IMVI melanoma = test system: LOX IMVI melanoma
CCRF-CEM leukemia = test system: CCRF-CEM leukemia
OVCAR-5 ovarian = test system: OVCAR-5 ovarian

Nc1ncn([C@H]2C[C@H](OP(=O)(O)OC[C@H]3O[C@@H](n4cnc5c(=O)[nH]c(N)nc54)C[C@@H]3O)[C@@H](CO)O2)c(=O)n1
71.3 µM: TGI (NCI-H522 lung)
0.451 µM: TGI (RPMI-8226 leukemia)
31.1 µM: TGI (786-0 renal)
53.3 µM: TGI (HOP-62 NSCLC)
83.2 µM: TGI (ACHN renal)
25.5 µM: TGI (SR leukemia)
1.88 µM: TGI (CCRF-CEM leukemia)
> 100 µM: TGI (COLO 205 colon) | TGI (CAKI-1 renal) | TGI (OVCAR-4 ovarian) | TGI (MALME-3M melanoma) | TGI (SK-OV-3 ovarian) | TGI (DU-145 prostate) | TGI (NCI-H322M lung) | TGI (A498 renal) | TGI (OVCAR-3 ovarian) | TGI (KM12 colon) | TGI (MCF7 breast) | TGI (SF-539 CNS) | TGI (SK-MEL-28 melanoma) | TGI (UO-31 renal) | TGI (SF-295 CNS) | TGI (UACC-257 melanoma) | TGI (NCI-H23 lung) | TGI (MDA-MB-435 melanoma) | TGI (SW-620 colon) | TGI (M14 melanoma) | TGI (NCI/ADR-RES ovarian) | TGI (U251 glioblastoma) | TGI (K-562 leukemia) | TGI (HOP-92 NSCLC) | TGI (TK-10 renal) | TGI (HCC-2998 colon) | TGI (HT29 colon) | TGI (NCI-H226 lung) | TGI (SNB-19 CNS) | TGI (MDA-MB-231 breast) | TGI (IGROV1 ovarian) | TGI (SK-MEL-2 melanoma) | TGI (NCI-H460 NSCLC) | TGI (OVCAR-8 ovarian) | TGI (HCT-15 colon) | TGI (HCT-116 colon) | TGI (A549 NSCLC) | TGI (UACC-62 melanoma) | TGI (PC-3 prostate) | TGI (OVCAR-5 ovarian)
56.6 µM: TGI (SF-268 CNS)
18.2 µM: TGI (HL-60(TB) leukemia)
26.4 µM: TGI (SN12C renal)
10.7 µM: TGI (SK-MEL-5 melanoma)
0.368 µM: TGI (MDA-MB-468 breast)
active: GI50 (RPMI-8226 leukemia) 0.0714 µM | GI50 (MDA-MB-468 breast) 0.0431 µM | GI50 (MOLT-4 leukemia) 0.0566 µM | GI50 (CCRF-CEM leukemia) 0.0724 µM
37.4 µM: TGI (LOX IMVI melanoma)
0.373 µM: TGI (MOLT-4 leukemia)
47 µM: TGI (T-47D breast)
6.21 µM: TGI (RXF 393 renal)
inactive: GI50 (COLO 205 colon) 68.9 µM | GI50 (CAKI-1 renal) 7.79 µM | GI50 (OVCAR-4 ovarian) > 100 µM | GI50 (MALME-3M melanoma) 20.6 µM | GI50 (SK-OV-3 ovarian) > 100 µM | GI50 (DU-145 prostate) 33.3 µM | GI50 (NCI-H322M lung) 28.8 µM | GI50 (A498 renal) 37.7 µM | GI50 (OVCAR-3 ovarian) > 100 µM | GI50 (BT-549 breast) 6.95 µM | GI50 (KM12 colon) > 100 µM | GI50 (MCF7 breast) 14 µM | GI50 (SF-539 CNS) 20.8 µM | GI50 (SK-MEL-28 melanoma) 26.1 µM | GI50 (UO-31 renal) > 100 µM | GI50 (SR leukemia) 6.81 µM | GI50 (SF-295 CNS) > 100 µM | GI50 (UACC-257 melanoma) > 100 µM | GI50 (NCI-H23 lung) > 100 µM | GI50 (MDA-MB-435 melanoma) 43.6 µM | GI50 (SW-620 colon) 18.5 µM | GI50 (M14 melanoma) 0.922 µM | GI50 (NCI/ADR-RES ovarian) > 100 µM | GI50 (U251 glioblastoma) 11.2 µM | GI50 (K-562 leukemia) 1.48 µM | GI50 (T-47D breast) 13 µM | GI50 (HOP-92 NSCLC) 54.5 µM | GI50 (TK-10 renal) 32.2 µM | GI50 (NCI-H522 lung) 4 µM | GI50 (SN12C renal) 5.84 µM | GI50 (HCC-2998 colon) 2.82 µM | GI50 ([…]-0 renal) 3.34 µM | GI50 (HT29 colon) 46.5 µM | GI50 (NCI-H226 lung) 32.7 µM | GI50 (SNB-19 CNS) > 100 µM | GI50 (MDA-MB-231 breast) 38.3 µM | GI50 (IGROV1 ovarian) > 100 µM | GI50 (SK-MEL-2 melanoma) > 100 µM | GI50 (HL-60(TB) leukemia) 1.16 µM | GI50 (NCI-H460 NSCLC) 0.763 µM | GI50 (HOP-62 NSCLC) 1.83 µM | GI50 (OVCAR-8 ovarian) 10.8 µM | GI50 (ACHN renal) 2.33 µM | GI50 (HCT-15 colon) > 100 µM | GI50 (SF-268 CNS) 12.4 µM | GI50 (HCT-116 colon) 2.79 µM | GI50 (A549 NSCLC) 10.8 µM | GI50 (SK-MEL-5 melanoma) 0.437 µM | GI50 (UACC-62 melanoma) 26.6 µM | GI50 (RXF 393 renal) 1.05 µM | GI50 (PC-3 prostate) 28.4 µM | GI50 (LOX IMVI melanoma) 13.5 µM | GI50 (OVCAR-5 ovarian) 77.6 µM
40.6 µM: TGI (BT-549 breast)
